Reference: US20260297109A1, “COMPOUNDS AS SUMO ACTIVATING ENZYME INHIBITORS” (WIGEN BIOMEDICINE TECHNOLOGY (SHANGHAI) CO., LTD., priority 2022, published 2026)
pIC50: −log10 of the molar value.

Target: T1, SAE (Homo sapiens, UniProt Q9UBT2)
T1 construct: endogenous in cells; host or cells: HCT116
T1 sequence (Q9UBT2 1-640): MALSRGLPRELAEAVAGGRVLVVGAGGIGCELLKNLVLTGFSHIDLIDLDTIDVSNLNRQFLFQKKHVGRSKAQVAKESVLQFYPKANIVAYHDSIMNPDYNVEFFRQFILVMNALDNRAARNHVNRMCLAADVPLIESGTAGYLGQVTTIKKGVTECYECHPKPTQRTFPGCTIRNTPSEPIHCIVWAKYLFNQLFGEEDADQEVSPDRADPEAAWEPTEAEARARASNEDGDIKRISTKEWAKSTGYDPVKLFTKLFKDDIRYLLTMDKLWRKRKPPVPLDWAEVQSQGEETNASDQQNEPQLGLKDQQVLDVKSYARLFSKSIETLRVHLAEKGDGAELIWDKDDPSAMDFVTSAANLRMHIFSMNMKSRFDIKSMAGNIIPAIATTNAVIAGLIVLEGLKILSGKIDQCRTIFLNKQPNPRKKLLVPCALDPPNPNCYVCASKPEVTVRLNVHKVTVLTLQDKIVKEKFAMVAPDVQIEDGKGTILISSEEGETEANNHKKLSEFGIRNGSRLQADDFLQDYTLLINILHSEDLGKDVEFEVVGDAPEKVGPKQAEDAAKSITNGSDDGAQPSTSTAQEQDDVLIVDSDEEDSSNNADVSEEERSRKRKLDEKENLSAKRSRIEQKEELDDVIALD
T1 sequence (Q9UBE0 1-346): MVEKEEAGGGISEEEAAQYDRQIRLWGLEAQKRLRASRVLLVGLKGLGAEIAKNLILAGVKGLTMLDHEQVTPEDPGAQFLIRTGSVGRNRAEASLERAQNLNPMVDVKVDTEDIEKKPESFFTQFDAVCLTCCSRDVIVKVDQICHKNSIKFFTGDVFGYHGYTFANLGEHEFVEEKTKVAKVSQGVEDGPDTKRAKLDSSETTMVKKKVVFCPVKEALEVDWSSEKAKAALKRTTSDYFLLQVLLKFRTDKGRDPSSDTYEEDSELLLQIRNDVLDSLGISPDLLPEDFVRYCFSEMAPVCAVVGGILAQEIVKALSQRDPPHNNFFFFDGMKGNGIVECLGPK
Assay: SUMO IF: in vitro inhibitory activity assay against SAE in HCT116 cells (SUMO-2/3 immunofluorescence)
Format: cell-based
Details: class symbols, 6 h at 37° C.
In short: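 HCT116 cells were treated with compound for 6 h at 37 °C, then PFA-fixed, Triton-permeabilised and BSA-blocked. They were stained overnight at 4 °C with anti-SUMO-2/3 (18H8) rabbit mAb (1:400), then with FITC anti-rabbit IgG (1:300). Fluorescence versus DMSO gave inhibition rate and IC50.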

Row | Structure (SMILES) | pIC50
1 | NS(=O)(=O)OC[C@H]1[C@H](F)[C@@H](Nc2ncncc2C(=O)c2cc3c(s2)CCC[C@]32NCCc3cc(Cl)c(F)cc32)C[C@@H]1O [Compound 677] | ≥ 7.30
2 | NS(=O)(=O)OC[C@H]1[C@H](F)[C@@H](Nc2ncncc2C(=O)c2cc3c(s2)CCC[C@]32NCCc3ccncc32)C[C@@H]1O [Compound 678] | 6.70 to 7.30
3 | NS(=O)(=O)OC[C@H]1[C@H](F)[C@@H](Nc2ncncc2C(=O)c2cc3c(s2)CCC[C@]32NCCc3cc(Cl)ncc32)C[C@@H]1O [Compound 679] | 6.70 to 7.30
4 | NS(=O)(=O)OC[C@H]1[C@H](F)[C@@H](Nc2ncncc2C(=O)c2cc3c(s2)C=CC[C@]32NCCc3ccc(Cl)cc32)C[C@@H]1O [Compound 680] | ≥ 7.30
5 | NS(=O)(=O)OC[C@H]1[C@H](F)[C@@H](Nc2ncncc2C(=O)c2cc3c(s2)CC=C[C@]32NCCc3ccc(Cl)cc32)C[C@@H]1O [Compound 681] | ≥ 7.30
6 | NS(=O)(=O)OC[C@H]1[C@H](F)[C@@H](Nc2ncncc2C(=O)c2cc3c(s2)OCC[C@]32NCCc3ccc(Cl)cc32)C[C@@H]1O [Compound 682] | 6.70 to 7.30
7 | NS(=O)(=O)OC[C@H]1[C@H](F)[C@@H](Nc2ncncc2C(=O)c2cc3c(s2)CCC[C@]32NC3(CC3)Cc3ccc(Cl)cc32)C[C@@H]1O [Compound 684] | 6.70 to 7.30
8 | NS(=O)(=O)OC[C@H]1[C@H](F)[C@@H](Nc2ncncc2C(=O)c2cc3c(s2)CCC[C@@]32OCCc3ccc(Cl)cc32)C[C@@H]1O [Compound 685] | < 6.70
9 | NS(=O)(=O)OC[C@H]1[C@H](F)[C@@H](Nc2ncncc2C(=O)c2cc3c(s2)CCC[C@]32OCCc3ccc(Cl)cc32)C[C@@H]1O [Compound 686] | ≥ 7.30
10 | Cc1ccc2c(c1)[C@@]1(CCc3sc(C(=O)c4cncnc4N[C@H]4C[C@H](O)[C@@H](COS(N)(=O)=O)[C@@H]4F)cc31)NCC2 [Compound 687] | 6.70 to 7.30
11 | NS(=O)(=O)OC[C@H]1[C@H](F)[C@@H](Nc2ncncc2C(=O)c2cc3c(s2)CC[C@]32NCCc3ccc(C4CC4)cc32)C[C@@H]1O [Compound 688] | 6.70 to 7.30
12 | COc1ccc2c(c1)[C@@]1(CCc3sc(C(=O)c4cncnc4N[C@H]4C[C@H](O)[C@@H](COS(N)(=O)=O)[C@@H]4F)cc31)NCC2 [Compound 689] | 6.70 to 7.30
13 | NS(=O)(=O)OC[C@H]1[C@H](F)[C@@H](Nc2ncncc2C(=O)c2cc3c(s2)CC[C@]32NCCc3ccc(C(F)(F)F)cc32)C[C@@H]1O [Compound 690] | 6.70 to 7.30
14 | NS(=O)(=O)OC[C@H]1[C@H](F)[C@@H](Nc2ncncc2C(=O)c2cc3c(s2)CC[C@]32NCCc3cc(F)c(F)cc32)C[C@@H]1O [Compound 691] | ≥ 7.30
15 | NS(=O)(=O)OC[C@H]1[C@H](F)[C@@H](Nc2ncncc2C(=O)c2cc3c(s2)CC[C@]32NCCc3cc(F)c(Cl)cc32)C[C@@H]1O [Compound 692] | ≥ 7.30
16 | NS(=O)(=O)OC[C@H]1[C@H](F)[C@@H](Nc2ncncc2C(=O)c2cc3c(s2)CC[C@]32NCCc3cc(Cl)c(Cl)cc32)C[C@@H]1O [Compound 693] | ≥ 7.30
17 | Cc1cc2c(cc1Cl)[C@@]1(CCc3sc(C(=O)c4cncnc4N[C@H]4C[C@H](O)[C@@H](COS(N)(=O)=O)[C@@H]4F)cc31)NCC2 [Compound 694] | ≥ 7.30
18 | N#Cc1cc2c(cc1Cl)[C@@]1(CCc3sc(C(=O)c4cncnc4N[C@H]4C[C@H](O)[C@@H](COS(N)(=O)=O)[C@@H]4F)cc31)NCC2 [Compound 695] | ≥ 7.30
19 | COc1cc2c(cc1Cl)[C@@]1(CCc3sc(C(=O)c4cncnc4N[C@H]4C[C@H](O)[C@@H](COS(N)(=O)=O)[C@@H]4F)cc31)NCC2 [Compound 696] | 6.70 to 7.30
20 | NS(=O)(=O)OC[C@H]1[C@H](F)[C@@H](Nc2ncncc2C(=O)c2cc3c(s2)CC[C@]32NCCc3cc(F)c(Cl)c(F)c32)C[C@@H]1O [Compound 697] | ≥ 7.30
21 | NS(=O)(=O)OC[C@H]1[C@H](F)[C@@H](Nc2ncncc2C(=O)c2cc3c(s2)CC[C@]32NCCc3cc(Cl)c(F)cc32)C[C@@H]1O [Compound 698] | ≥ 7.30
22 | NS(=O)(=O)OC[C@H]1[C@H](F)[C@@H](Nc2ncncc2C(=O)c2cc3c(s2)CC[C@]32NCCc3ccncc32)C[C@@H]1O [Compound 699] | 6.70 to 7.30
23 | NS(=O)(=O)OC[C@H]1[C@H](F)[C@@H](Nc2ncncc2C(=O)c2cc3c(s2)CC[C@]32NCCc3cc(Cl)ncc32)C[C@@H]1O [Compound 700] | 6.70 to 7.30

Row | Structure (SMILES) | pIC50
24 | [2H]C1([2H])Cc2ccc(Cl)cc2[C@@]2(C=Cc3sc(C(=O)c4cncnc4N[C@H]4C[C@H](O)[C@@H](COS(N)(=O)=O)[C@@H]4F)cc32)N1 [Compound 701] | ≥ 7.30
25 | NS(=O)(=O)OC[C@H]1[C@H](F)[C@@H](Nc2ncncc2C(=O)c2cc3c(s2)CO[C@]32NCCc3ccc(Cl)cc32)C[C@@H]1O [Compound 703] | 6.70 to 7.30
26 | NS(=O)(=O)OC[C@H]1[C@H](F)[C@@H](Nc2ncncc2C(=O)c2cc3c(s2)CC[C@]32NCC3(CC3)c3ccc(Cl)cc32)C[C@@H]1O [Compound 704] | 6.70 to 7.30
27 | NS(=O)(=O)OC[C@H]1[C@H](F)[C@@H](Nc2ncncc2C(=O)c2cc3c(s2)CC[C@]32NC3(CC3)Cc3ccc(Cl)cc32)C[C@@H]1O [Compound 705] | 6.70 to 7.30
28 | NS(=O)(=O)OC[C@H]1[C@H](F)[C@@H](Nc2ncncc2C(=O)c2cc3c(s2)CC[C@@]32OCCc3ccc(Cl)cc32)C[C@@H]1O [Compound 706] | < 6.70
29 | NS(=O)(=O)OC[C@H]1[C@H](F)[C@@H](Nc2ncncc2C(=O)c2cc3c(s2)CC[C@]32OCCc3ccc(Cl)cc32)C[C@@H]1O [Compound 707] | ≥ 7.30
30 | NS(=O)(=O)OC[C@H]1[C@H](F)[C@@H](Nc2ncncc2C(=O)c2cc3c(s2)CCCC32OCCc3ccccc32)C[C@@H]1O (stereo partly drawn) [Compound 708] | < 6.70
31 | NS(=O)(=O)OC[C@H]1[C@H](F)[C@@H](Nc2ncncc2C(=O)c2cc3c(s2)CCC[C@@]32OCCc3ccccc32)C[C@@H]1O [Compound 709] | < 6.70
32 | NS(=O)(=O)OC[C@H]1[C@H](F)[C@@H](Nc2ncncc2C(=O)c2cc3c(s2)CCC[C@]32OCCc3ccccc32)C[C@@H]1O [Compound 710] | 6.70 to 7.30
33 | NS(=O)(=O)OC[C@H]1[C@H](F)[C@@H](Nc2ncncc2C(=O)c2cc3c(s2)CCCC32OCCc3ccc(F)cc32)C[C@@H]1O (stereo partly drawn) [Compound 711] | 6.70 to 7.30
34 | NS(=O)(=O)OC[C@H]1[C@H](F)[C@@H](Nc2ncncc2C(=O)c2cc3c(s2)CCC[C@@]32OCCc3ccc(F)cc32)C[C@@H]1O [Compound 712] | < 6.70
35 | NS(=O)(=O)OC[C@H]1[C@H](F)[C@@H](Nc2ncncc2C(=O)c2cc3c(s2)CCC[C@]32OCCc3ccc(F)cc32)C[C@@H]1O [Compound 713] | ≥ 7.30
36 | N#Cc1ccc2c(c1)C1(CCCc3sc(C(=O)c4cncnc4N[C@H]4C[C@H](O)[C@@H](COS(N)(=O)=O)[C@@H]4F)cc31)OCC2 (stereo partly drawn) [Compound 714] | 6.70 to 7.30
37 | N#Cc1ccc2c(c1)[C@]1(CCCc3sc(C(=O)c4cncnc4N[C@H]4C[C@H](O)[C@@H](COS(N)(=O)=O)[C@@H]4F)cc31)OCC2 [Compound 715] | < 6.70
38 | N#Cc1ccc2c(c1)[C@@]1(CCCc3sc(C(=O)c4cncnc4N[C@H]4C[C@H](O)[C@@H](COS(N)(=O)=O)[C@@H]4F)cc31)OCC2 [Compound 716] | ≥ 7.30
39 | CN1Cc2sc(C(=O)c3cncnc3N[C@H]3C[C@H](O)[C@@H](COS(N)(=O)=O)[C@@H]3F)cc2C2(C1)OCCc1ccccc12 (stereo partly drawn) [Compound 717] | 6.70 to 7.30
40 | CN1Cc2sc(C(=O)c3cncnc3N[C@H]3C[C@H](O)[C@@H](COS(N)(=O)=O)[C@@H]3F)cc2[C@@]2(C1)OCCc1ccccc12 [Compound 718] | < 6.70
41 | CN1Cc2sc(C(=O)c3cncnc3N[C@H]3C[C@H](O)[C@@H](COS(N)(=O)=O)[C@@H]3F)cc2[C@]2(C1)OCCc1ccccc12 [Compound 719] | 6.70 to 7.30
42 | CN1Cc2sc(C(=O)c3cncnc3N[C@H]3C[C@H](O)[C@@H](COS(N)(=O)=O)[C@@H]3F)cc2C2(C1)OCCc1ccc(F)cc12 (stereo partly drawn) [Compound 720] | 6.70 to 7.30
43 | CN1Cc2sc(C(=O)c3cncnc3N[C@H]3C[C@H](O)[C@@H](COS(N)(=O)=O)[C@@H]3F)cc2[C@@]2(C1)OCCc1ccc(F)cc12 [Compound 721] | < 6.70
44 | CN1Cc2sc(C(=O)c3cncnc3N[C@H]3C[C@H](O)[C@@H](COS(N)(=O)=O)[C@@H]3F)cc2[C@]2(C1)OCCc1ccc(F)cc12 [Compound 722] | ≥ 7.30
45 | CN1Cc2sc(C(=O)c3cncnc3N[C@H]3C[C@H](O)[C@@H](COS(N)(=O)=O)[C@@H]3F)cc2C2(C1)OCCc1ccc(Cl)cc12 (stereo partly drawn) [Compound 723] | ≥ 7.30
